Target: T1, Chymase purified form human skin mast cells (Homo sapiens, UniProt P23946)
T1 construct: Chymase purified form human skin mast cells was obtained from Calbiochem; purchased Calbiochem (Merck Biosciences, San Diego, Calif., USA); host or cells: human skin mast cells (tissue-derived, not recombinant)
T1 sequence (P23946 22-247): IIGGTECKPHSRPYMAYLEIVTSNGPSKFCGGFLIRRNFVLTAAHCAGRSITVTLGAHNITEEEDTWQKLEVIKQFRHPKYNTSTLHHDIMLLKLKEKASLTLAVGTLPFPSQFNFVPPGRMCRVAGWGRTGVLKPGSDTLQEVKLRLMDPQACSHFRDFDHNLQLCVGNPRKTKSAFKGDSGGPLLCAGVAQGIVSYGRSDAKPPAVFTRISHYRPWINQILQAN
Assay: chymase peptide substrate assay (AAPF-AMC fluorescence)
Assay type: biochemical
Conditions: 0.02 mM AAPF-substrate, 1 nM Chymase, pH 7.4, room temperature, 30 min pre-incubation
Description: The peptide was synthesized with a purity of 95% from Bachem, Bubendorf, Switzerland). Chymase purified form human skin mast cells was obtained from Calbiochem (Merck Biosciences, San Diego, Calif., USA). The assay buffer was 0.15 M NaCl, 0.05M, Tris HCl, 0.05% CHAPS (3-[(3-Cholamidopropyl)-dimethylammonio]-1-propane sulphonate), 0.1 mg/ml Heparin (Heparin sodium, Sigma, porcine intestinal mucosa), 0.02 mM AAPF-substrate, 1 nM Chymase at pH 7.4. The assay was performed in 96-well plates (Packard Optiplate), with a 0.05 ml volume at room temperature. Chymase activity was indicated by the initial rate of increase in fluorescence at 340/440 nm (excitation/emission) from free 7-amino-4-methylcoumarin released from the substrate. Inhibition of the activity by inhibitory compounds was read after 30 min pre-incubation with the chymase at room temperature in assay buffer without AAPF-substrate. The assay was then started by addition of the indicated concentration of AAPF-substrate.

Structure (SMILES) | IC50 [nM]
Cc1c(C(C2=C(O)C(C(C)C)N(C)C2=O)c2ccccc2)[nH]c2ccc(F)cc12 (stereo not shown) [Example 11, 3-[(5-Fluoro-3-methyl-1H-indol-2-yl)-phenyl-methyl]-4-hydroxy-5-isopropyl-1-methyl-1,5-dihydro-pyrrol-2-one] | 13
CC(=O)NCCc1c(C(C2=C(O)C(Cc3ccccc3)OC2=O)c2ccccc2)[nH]c2cc(F)ccc12 (stereo not shown) [Example 16, N-(2-{2-[(5-Benzyl-4-hydroxy-2-oxo-2,5-dihydro-furan-3-yl)-phenyl-methyl]-6-fluoro-1H-indol-3-yl}-ethyl)-acetamide] | 24
CC(=O)NCCc1c(C(C2=C(O)C(c3ccccc3)CC2=O)c2ccccc2)[nH]c2cc(F)ccc12 (stereo not shown) [Example 43, N-(2-{6-Fluoro-2-[(2-hydroxy-5-oxo-3-phenyl-cyclopent-1-enyl)-phenyl-methyl]-1H-indol-3-yl}-ethyl)-acetamide] | 3
CC(=O)NCc1c(C(C2=C(O)[C@@](C)(c3ccccc3)NC2=O)c2ccccc2)[nH]c2cc(C)ccc12 (stereo partly drawn) [Example 63, N-{2-[((R)-4-Hydroxy-5-methyl-2-oxo-5-phenyl-2,5-dihydro-1H-pyrrol-3-yl)-phenyl-methyl]-6-methyl-1H-indol-3-ylmethyl}-acetamide] | 10

Other lines, results leading:

IC50 [nM] | Structure (SMILES)
5 | Cc1c(C(C2=C(O)[C@@](C)(c3ccccc3)NC2=O)c2ccccc2)[nH]c2ccc(F)cc12 (stereo partly drawn) [Example 67, (R)-3-[(5-Fluoro-3-methyl-1H-indol-2-yl)-phenyl-methyl]-4-hydroxy-5-methyl-5-phenyl-1,5-dihydro-pyrrol-2-one]
15 | CC(=O)NCc1c(C(C2=C(O)[C@@](C)(c3ccccc3)OC2=O)c2ccccc2)[nH]c2cc(C)ccc12 (stereo partly drawn) [Example 72, N-{2-[((R)-4-Hydroxy-5-methyl-2-oxo-5-phenyl-2,5-dihydro-furan-3-yl)-phenyl-methyl]-6-methyl-1H-indol-3-ylmethyl}-acetamide]
2 | Cc1c(C(C2=C(O)C(c3ccccc3)CC2=O)c2ccccc2)[nH]c2ccc(F)cc12 (stereo not shown) [Example 79, 2-[(5-Fluoro-3-methyl-1H-indol-2-yl)-phenyl-methyl]-3-hydroxy-4-phenyl-cyclopent-2-enone]
